Results reported in US10793526B2, “Hydantoin derivative compounds, methods of use and methods of treatment” (University of South Florida, priority 2016, dated 2020).
≈ marks a conversion by molar mass, not a printed value.

Key:
[1] = test system: colon cancer cells (HCT116); experiment: Selectivity for mammalian cells, HCT116; type: cell-based; conditions: Homo sapiens, HCT-116; read-out: IC50 toward colon cancer cells (HCT116)
[2] = test system: methicillin-resistant S. aureus (MRSA, ATCC 33591); experiment: Minimum inhibitory concentration (MIC) assay, MRSA; type: cell-based, Staphylococcus aureus
Procedure: (§1) Minimum inhibitory concentrations (MICs) assay.^2
(§2) All compounds were tested against six different bacteria strains: methicillin-resistant S. aureus (MRSA, ATCC 33591), E. coli (ATCC 25922), methicillin-resistant S. epidermidis (MRSE, RP62A), K. pneumoniae (ATCC 13383), vancomycin-resistant Enterococcus faecalis (VREF, ATCC 700802), P. aeruginosa (ATCC 27853). One colony of each bacteria was inoculated in 4 mL TSB buffer at 37° C. overnight, which was then diluted 100 times, and the bacteria were allowed to grow to the mid-logarithmic phase. 50 μL hydantoin compounds in 2-fold serial dilution of TSB were added in the 96-well plate, then 50 μL diluted bacterial in TSB medium (1×10^6 CFU/mL) was added to each well. After 16 h of incubation at 37° C., the absorption at 600 nm wavelength on a Biotek Synergy HT microtiter plate reader was recorded. Minimum inhibitory concentrations were determined as the lowest concentrations that inhibited bacteria growth completely.

[3] = test system: MRSA-induced lung inflammation; experiment: Rat model of MRSA-induced pneumonia, pathological analysis (H&E); type: in vivo; conditions: 10 mg/kg i.v.
Procedure: (§3) The rat model of MRSA-induced pneumonia.^4, 5
(§4) The protocol of animal studies was approved by the institutional committee for animal care of Nanjing University, and the experiments were conducted following the regulation of the National Ministry of Health of China. In Brief, male Wistar rats (6-8 weeks, ˜200 g in average weight) were subjected to fast for 12 h. Next, rats were anesthetized by intraperitoneal administration of 0.35 g/kg of chloral hydrate. To induce MRSA pneumonia, the trachea of rats were exposed, to which 100 μL PBS containing 2×10^6 CFU/mL MRSA in PBS was slowly injected. The rats were retained upright for 1 min, and the cut was sealed. The MRSA infection was allowed to develop for 24 h.
The hydantoin compound 22 or vancomycin were used as antibiotics in the study. In brief, a dose of 10 mg/kg of the drug was injected to the tested rats intravenously. On the day of 3 and 5, rats were sacrificed, and lung sections were stained with hematoxylin and eosin (H&E), and their morphology was investigated under a light microscope at 100× magnification. The existence (indicated by the infiltration of neutrophils) and the extent of possible inflammatory response (indicated by the integrity of the alveolar structure and endothelium cilium) were recorded from at least five randomly picked sections by an experienced physician.

MRSA [4] = experiment: Drug resistance assay; type: cell-based, Staphylococcus aureus
Procedure: The lead compound 22 was chosen for drug resistance studies. Briefly, after its MIC against MRSA was determined, the bacteria solution from the well of the ½ MIC was withdrawn and diluted to 1×10^6 CFU/mL for the next MIC measurement. The measurement was repeated for 14 passages.

[5] = test system: ovarian cancer cells (C13); experiment: Selectivity for mammalian cells, C13; type: cell-based; conditions: Homo sapiens, read-out: IC50 toward ovarian cancer cells (C13)
[6] = test system: red blood cells (RBCs) of mice; experiment: Hemolytic assay; type: cell-based; conditions: hemolytic activity; mouse RBCs, 1 h at 37° C.
Procedure: Fresh red blood cells (RBCs) of mice were washed with 1×PBS buffer and centrifuged 10 min at 3500 rpm for 3 times until the supernatant was clear, then RBCs were diluted into 5% v/v suspension in 1×PBS. 50 μL compounds in PBS were 2-fold serially diluted in a 96-well plate, and incubated with 50 μL RBCs suspension for 1 h at 37° C. The mixture was then centrifuged for 10 min at 3500 rpm. Subsequently, 30 μL of the supernatant was added to 100 μL PBS, then the absorbance of mixture was read on a Biotek Synergy HT plate reader at 540 nm. The hemolytic activity was calculated by the formula % hemolysis=(Abssample−AbsPBS)/(AbsTriton−AbsPBS)×100%. 1% Triton X-100 were used as the positive control and 1×PBS buffer was used as the negative control.

[7] = test system: panel of Gram-positive and Gram-negative bacteria; experiment: Antimicrobial activity against the whole panel of bacteria; type: cell-based; conditions: all tested strains; read-out: MICs against all tested Gram-positive and Gram-negative strains
Procedure: as §1, §2

E. coli (ATCC 25922) = experiment: Minimum inhibitory concentration (MIC) assay, E. coli; type: cell-based, Escherichia coli; conditions: Escherichia coli, ATCC25922, Gram negative, 16 h incubation, read-out: MIC (μg/mL) E. coli
Procedure: as §1, §2

[8] = test system: K. pneumoniae (ATCC 13383); experiment: Minimum inhibitory concentration (MIC) assay, K. pneumoniae; type: cell-based, Klebsiella pneumoniae; conditions: Klebsiella pneumoniae, ATCC13383, Gram negative, 16 h incubation, read-out: MIC (μg/mL) K.P.
Procedure: as §1, §2

[9] = test system: vancomycin-resistant Enterococcus faecalis (VREF, ATCC 700802); experiment: Minimum inhibitory concentration (MIC) assay, VREF; type: cell-based; conditions: Enterococcus faecalis, ATCC700802, Gram positive, 16 h incubation, read-out: MIC (μg/mL) VREF
Procedure: as §1, §2

MRSA [10] = experiment: Time kill assay, MRSA; type: cell-based, Staphylococcus aureus
Procedure: Bacteria MRSA (Gram-positive) and E. coli (Gram-negative) suspensions were allowed to grow at 37° C. to the mid-logarithmic phase, and diluted to 1×10^6 CFU/mL, then incubated with the compound 22 at the concentration of 50, 25, 12.5 μg/mL at 10 min, 30 min, 1 h and 2 h, respectively. The resulted mixture was then diluted by 10^2 to 10^4 fold, from which 100 μL was spread on the TSB agar plate. The Number of bacteria colonies was counted after 20 h of incubation at 37° C.

MRSA [11] = experiment: Rat model of MRSA-induced pneumonia, bacterial count in lungs; type: in vivo; conditions: 10 mg/kg i.v.
Procedure: as §3, §4
Bronchoalveolar lavage (BAL) assay.
The assay was carried out to quantify the bacteria in the lungs of rats. The thorax of rats was opened, and the lungs were collected in each group at different time points. Then the lungs were malleated and homogenized by a glass homogenizer, and diluted with PBS to the determined volume. After that, 10 μL solution was picked up, diluted with PBS by 100-fold, and daubed on the isolation medium. Bacteria were counted in each sample after incubation for 24 h at 37° C., from which the number of bacteria (colonies/g tissue) was calculated.

With CCCCCCCCCCCC(=O)N[C@@H](CCCCN)CN1CC(=O)N(c2cccc(Cl)c2)C1=O [Compound 22, (S)—N-(6-amino-1-(3-(3-chlorophenyl)-2,4-dioxoimidazolidin-1-yl)hexan-2-yl)dodecanamide] the IC50 [1] was 100 µg/mL (≈ 197 µM), the MIC ([2]; Staphylococcus aureus, Gram positive, ATCC 33591, 16 h incubation, read-out: MIC (μg/mL) MRSA) was 0.5 µg/mL and the “effectiveness toward MRSA compared with nitrofurantoin” value ([2]; ratio of MICs) was 25 fold. For the same compound, the “lung inflammation (H&E staining), day 3” value ([3]; day 3) was “only mild inflammation”, the “lung inflammation (H&E staining), day 5” value ([3]; day 5) was “virtually the normal condition” and the “MIC against MRSA after 14 passages at half MIC” value (MRSA [4]) was “virtually remain unchanged”. The IC50 [5] was 90 µg/mL (≈ 177 µM), the “HC50” value [6] was 95 µg/mL and the MIC [7] was < 1 µg/mL. For the same compound, the MIC (E. coli (ATCC 25922)) was 1 µg/mL, the MIC [8] was 0.78 µg/mL and the MIC [9] was 0.5 µg/mL. The “time to completely eradicate MRSA” value (MRSA [10]; 2.0 μg/mL (4×MIC)) was 60 min, the “time to completely eradicate MRSA” value (MRSA [10]; 25 μg/mL) was 10 min and the “reduction of bacteria compared with the control, day 5” value (MRSA [11]) was 96%.
